Each structure is given as a SMILES string.

Test [1] has as its target T1, Gonadotropin-releasing hormone receptor (Homo sapiens, UniProt P30968).
T1 sequence (P30968 whole entry): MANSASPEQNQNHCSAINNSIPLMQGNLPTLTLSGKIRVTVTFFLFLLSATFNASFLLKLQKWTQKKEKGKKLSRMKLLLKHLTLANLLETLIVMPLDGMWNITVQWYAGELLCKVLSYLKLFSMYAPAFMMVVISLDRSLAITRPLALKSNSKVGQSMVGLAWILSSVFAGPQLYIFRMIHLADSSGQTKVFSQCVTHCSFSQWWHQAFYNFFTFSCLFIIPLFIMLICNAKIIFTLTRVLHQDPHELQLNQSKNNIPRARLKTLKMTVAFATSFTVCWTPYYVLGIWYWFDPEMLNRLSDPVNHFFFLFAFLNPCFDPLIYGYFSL
Kind of test: Binding affinity to human GnRHR.

Test [2] deals with T1, Gonadotropin-releasing hormone receptor. Kind of test: Antagonist activity at human GnRHR assessed as inhibition of calcium flux by IP3 assay. Format: functional. For orientation: A change in cytosolic calcium serves as a functional read-out for many receptors and channels.

As usually defined, the Ki is a measure of affinity in units of concentration, obtained from inhibition or displacement. On to `COc1cccc(-c2c(C)n(Cc3c(F)cccc3C(F)(F)F)c(=O)n(C[C@H](C)NC3CCCC3)c2=O)c1`, for which the affinity in test [1], expressed as Ki, was 4.5 nM.
The molecule `CC[C@@H](Cn1c(=O)c(-c2cccc(OC)c2Cl)c(C)n(Cc2c(F)cccc2C(F)(F)F)c1=O)NC1CCCC1` came in with a Ki in test [1] of 3.7 nM. This Ki and that of the molecule before are within 1.5-fold of each other.
As usually defined, the IC50 is the concentration that inhibits the measured activity by half. `COc1cccc(-c2c(C)n(Cc3c(F)cccc3C(F)(F)F)c(=O)n(C[C@H](CO)NC3CCCC3)c2=O)c1Cl` (atropisomer R): in test [2], the IC50 is 2.6 nM. In test [1], this molecule gave a Ki of 0.36 nM.
Regarding `COc1cccc(-c2c(C)n(Cc3c(F)cccc3C(F)(F)F)c(=O)n(C[C@H](C)NC3CCCC3)c2=O)c1F`, the IC50 in test [2] was 3.3 nM. In test [1], this molecule showed a Ki of 0.61 nM.
Consider `COc1cccc(-c2c(C)n(Cc3c(F)cccc3F)c(=O)n(C[C@H](CO)NC3CCCC3)c2=O)c1F`, for which affinity in test [1] was put at a Ki of 4.9 nM.
On to `COc1cccc(-c2c(C)n(Cc3c(F)cccc3C(F)(F)F)c(=O)n(C[C@@H](C)NC3CCCC3)c2=O)c1F`, for which the affinity in test [1], expressed as Ki, was 33 nM.
As to `CC[C@@H](Cn1c(=O)c(-c2cccc(OC)c2F)c(C)n(Cc2c(F)cccc2C(F)(F)F)c1=O)NC1CCCC1`, the affinity in test [1] corresponds to a Ki of 4.2 nM. This Ki is about 7.9-fold lower than that of the molecule before.
For `COc1cccc(-c2c(C)n(Cc3c(F)cccc3C(F)(F)F)c(=O)n(C[C@H](CO)NC3CCCC3)c2=O)c1Cl`, in test [2], the IC50 worked out at 5.4 nM. In test [1], this molecule registered a Ki of 0.7 nM.
Take `COc1cccc(-c2c(C)n(Cc3c(F)cccc3C(F)(F)F)c(=O)n(C[C@H](C)NC3CCCC3)c2=O)c1Cl` (single isomer, unassigned; form 1): in test [2], the half-maximal inhibitory concentration (IC50) is 385 nM. The affinity in test [1], expressed as Ki, was 61 nM.
In the same order, the values of `COc1cccc(-c2c(C)n(Cc3c(F)cccc3C(F)(F)F)c(=O)n(C[C@H](C)NC3CCCC3)c2=O)c1Cl` (single isomer, unassigned; form 2) are 1.5 nM and 0.3 nM.
Take `CC[C@H](Cn1c(=O)c(-c2cccc(OC)c2F)c(C)n(Cc2c(F)cccc2C(F)(F)F)c1=O)NC1CCCC1`: affinity in test [1] was put at a Ki of 20 nM. This lies in the double-digit nanomolar range.
`CC[C@H](Cn1c(=O)c(-c2cccc(OC)c2Cl)c(C)n(Cc2c(F)cccc2C(F)(F)F)c1=O)NC1CCCC1`: in test [1], the affinity corresponds to a Ki of 7.4 nM. Against the preceding molecule, the Ki is about 2.7-fold lower.
`COc1cccc(-c2c(C)n(Cc3c(F)cccc3C(F)(F)F)c(=O)n(C[C@H](CO)NC3CCCC3)c2=O)c1Cl` (single isomer, unassigned; atropisomer): the IC50 in test [2] is 2500 nM. Further, the inhibition constant Ki in test [1] was 190 nM.

The values are drawn from ChEMBL document CHEMBL1145650, “5-Aryluracils as potent GnRH antagonists-Characterization of atropisomers” (Bioorg Med Chem Lett, 2008).
